The structures appear in SMILES notation.

The nature of this data set: gradient 5% acetonitrile 3 min, to 50% in 2 min, to 85% in 15 min, held 3 min, 100 µL/min. Particulars: column: Zorbax Extend-C18 2.1 x 50 mm; eluents: water / acetonitrile, 0.1% formic acid. Put shortly: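 Pure standards were analyzed in mixtures of ~100 molecules using HPLC coupled to a quadrupole time-of-flight mass spectrometer, in both positive and negative ionization mode. Separation used a Zorbax Extend-C18 column (2.1 × 50 mm, 1.8 μm) at 100 μL/min, with water and acetonitrile each containing 0.1% formic acid. Dead and dwell volumes were 40 μL and 900 μL, and data were collected over 3 months. Retention time was read from computationally picked adduct peaks, each inspected manually.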
The molecule `CC(C)CCNC(=O)C1(C)CN(S(=O)(=O)c2ccccc2)CC(=O)N1c1ccc(F)cc1` (configuration not stated) yielded an RP-LC retention time of 959 s. As for `Cc1ccc(-c2ccc(N3CCCC(C(=O)N4CCC5(CC4)OCCO5)C3)nn2)cc1C` (configuration not stated), the RP-LC retention time was determined as 684 s.

The molecule `O=C(N[C@@H]1CN(Cc2ccsc2)CC[C@@H]1CO)c1ccccc1` came in with an RP-LC retention time of 591 s. `Cn1cnc([N+](=O)[O-])c1Sc1nnnn1-c1ccccc1`: the RP-LC retention time worked out at 715 s. `O=C(Cn1nc2c3ccc(Cl)cc3ncn2c1=O)Nc1ccc(F)cc1`: the RP-LC retention time was 744 s.

Regarding `O=C(c1ccc(F)c(F)c1)N1CCC2(CC1)N=C(c1cccc(Br)c1)NO2`, the RP-LC retention time was 935 s. On to `COc1ccc(NC(=O)Cn2nc3nc(N4CCCC(C)C4)ccn3c2=O)cc1F` (configuration not stated), for which the RP-LC retention time stood at 775 s. Then `CCOC(=O)c1cnc(N2CCN(c3ccccc3F)CC2)c2ccccc12`, with 1350 s.

The molecule `Cc1ccc(CN2CCN(C3CCN(C(=O)Nc4ccc(C)c(F)c4)CC3)C(=O)C2=O)cc1` registered an RP-LC retention time of 817 s.

Molecule `Cc1cccc(NC(=O)N2c3ccccc3CC2c2nc(C3CC3)no2)c1C` (configuration not stated) returned an RP-LC retention time of 1100 s. For `CCc1nc2cc(-c3noc(-c4cccc(N(C)C)c4)n3)ccc2o1`, the RP-LC retention time came to 1230 s.

Molecule `CCOCCCNC(=O)N1CCC(c2cc(N)on2)CC1` had an RP-LC retention time of 601 s.

The molecule `CCn1nc2ccc(S(=O)(=O)N3CCC(C)CC3)cn2c1=O` yielded an RP-LC retention time of 827 s. `O=C(CS(=O)Cc1cnn(-c2ccccc2)c1-n1cccc1)N1CCCCCC1` (configuration not stated): the RP-LC retention time worked out at 902 s. In turn, `Cc1ccc(N2CCn3c2nc2c3c(=O)n(CC(=O)O)c(=O)n2C)cc1` registered an RP-LC retention time of 730 s.

For the molecule `CN(C)C[C@@H]1CN(c2ncccn2)C[C@H]1NC(=O)C1(C)CCOCC1`, the RP-LC retention time was determined as 532 s. In turn, `CC(C)(C)NC(=O)C(=O)c1c(-c2ccccc2)cc2ccccn12` registered an RP-LC retention time of 948 s. Molecule `CCn1cc(C(=O)N2CCC(c3nnc(-c4ccco4)o3)CC2)c(=O)c2ccc(C)nc21` displayed an RP-LC retention time of 654 s. `CCOC(=O)c1[nH]c(C)c(C(=O)N2CCC(CC(=O)N3CCN(CC)CC3)CC2)c1C`: the RP-LC retention time was determined as 579 s. Then `CCn1cc(S(=O)(=O)N2CCC(N3CC4(CCCCC4)C3c3ccccc3)CC2)cn1` (configuration not stated), with 660 s; and `CCOC(=O)C1CCN(S(=O)(=O)c2cc(-c3nnc(-c4ccccc4)o3)ccc2OC)CC1`, with 976 s. Molecule `CCn1cc(S(=O)(=O)N2CCC(C3CCN(C(=O)NC)CC3)C2)cn1` (configuration not stated) yielded an RP-LC retention time of 622 s.

`CCCN(Cc1ccc(OC)cc1)Cc1cc(=O)n2cc(C)ccc2n1` gave an RP-LC retention time of 633 s. In turn, `Cc1cccc(NC(=O)N2CC(F)(F)C[C@H]2CN2CCCC2)c1C` yielded an RP-LC retention time of 647 s. Then `COC(=O)c1ccccc1NC(=O)c1cc(N2C(=O)CCS2(=O)=O)ccc1Cl`, with 840 s; and `CC(C(=O)N1CCN(C(=O)c2ccco2)CC1)n1c2ccccc2c2cnn(C)c(=O)c21` (configuration not stated), with 746 s. With `COc1ccc(N2CCN(c3nc(C(=O)N4CCOCC4)cs3)CC2)cc1` the figure was 716 s; with `Cc1ccc(-c2ccc(N3CCCC(C(=O)NCc4ccco4)C3)nn2)cc1C` (configuration not stated), 719 s. With `Cn1cc(-c2nc(C(=O)NCc3ccc(F)c(Cl)c3)cs2)c2cccnc21`, the RP-LC retention time is 975 s. The molecule `CCCCN(C)C(=O)c1cc(NC(=O)C(C)(C)C)cnc1N1CCNCC1` gave an RP-LC retention time of 622 s. Then `O=C(Cn1nc2c(N3CCc4ccccc4C3)nccn2c1=O)NCCC1=CCCCC1`, with 984 s; and `O=S(=O)(c1ccc(-c2noc(-c3ccc(Cl)cc3)n2)cc1)N1CCOCC1`, with 1160 s.

For the origin of these results see the METLIN SMRT retention time set (Domingo-Almenara et al. 2019).
